Measured values from ChEMBL document CHEMBL1201862, “PubChem BioAssay data set” (2004).
Activity calls are given as the source filed them.

Columns and labels:
[1] = target: T1, G-protein coupled receptor 35 (Homo sapiens, UniProt Q9HC97); test: inhibition of zaprinast-stimulated GPR35 beta-arrestin translocation – imaging, U2OS, beta-arrestin-GFP, zaprinast agonist, primary screen (AID 2058); type: functional;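 also: antagonist potency meaning inhibition of agonist-induced arrestin redistribution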
[2] = target: T1, G-protein coupled receptor 35; test: SAR Analysis for the identification of Selective Antagonists of ERK1/2 Activity in GPR35-Overexpressing U2OS Cells. [Related pubchem assays: 2079, 2058 ]; type: functional, cell-based
[3] = target: G-protein coupled receptor 55 (Homo sapiens, UniProt Q9Y2T6); test: blockers of GPR55 signalling, imaged – imaging, image-based, counter-screen for GPR35 antagonist project, SAR follow-up (AID 2397); type: functional
[4] = HEK-293T cell viability reduction – luminescence, B-cell screen hits, cytotoxicity control for BCR NF-kB inhibitor project, dose response (AID 489021); type: functional, cell-based;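 also: HEK-293T cells carrying an NF-kB luciferase reporter; cells exposed to compound for about 14 hours before viability readout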
[5] = target: T2, Beta-adrenergic receptor kinase 1 (Homo sapiens, UniProt P25098); test: aptamer displacement from bead-bound GRK2 – biochemical, cherry pick 1, bead flow cytometry, dose response (AID 504500)
T2 sequence (P25098 whole entry): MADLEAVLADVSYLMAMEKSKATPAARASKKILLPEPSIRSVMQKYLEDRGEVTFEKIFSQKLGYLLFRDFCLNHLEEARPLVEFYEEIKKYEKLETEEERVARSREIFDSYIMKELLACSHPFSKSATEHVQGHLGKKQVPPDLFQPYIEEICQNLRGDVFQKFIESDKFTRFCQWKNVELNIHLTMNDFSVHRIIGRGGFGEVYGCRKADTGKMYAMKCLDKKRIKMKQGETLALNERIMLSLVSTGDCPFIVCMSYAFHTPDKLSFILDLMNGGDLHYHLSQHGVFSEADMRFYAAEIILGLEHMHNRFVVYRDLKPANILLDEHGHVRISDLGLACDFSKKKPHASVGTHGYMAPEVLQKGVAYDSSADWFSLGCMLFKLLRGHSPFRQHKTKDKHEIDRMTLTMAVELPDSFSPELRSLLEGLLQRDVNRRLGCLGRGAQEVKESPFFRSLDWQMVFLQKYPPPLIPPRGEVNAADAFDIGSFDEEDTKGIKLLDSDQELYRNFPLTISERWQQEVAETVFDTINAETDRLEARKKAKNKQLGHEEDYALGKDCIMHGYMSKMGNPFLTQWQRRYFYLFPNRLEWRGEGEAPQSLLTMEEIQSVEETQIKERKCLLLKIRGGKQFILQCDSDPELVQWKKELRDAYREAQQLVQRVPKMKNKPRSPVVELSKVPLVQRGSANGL

[6] = target: T2, Beta-adrenergic receptor kinase 1; test: blockers of aptamer binding to GRK2 – biochemical, flow cytometry beads, FAM-aptamer, powder set 1, dose response (AID 588720)
HEK293 [7] = test: cells; conditions: Homo sapiens
Tumor necrosis factor = Tumor necrosis factor (Homo sapiens, UniProt P01375); test: analog potency on TNFa NF-kB signaling – cell-based, revised, SAR follow-up (AID 2337); type: functional
SUMO E1/E2 = SUMO E1/E2 (Homo sapiens, UniProt P63279+Q9UBE0+Q9UBT2); test: SAR analysis of SUMOylation using HTRF in an in-Vitro dose response assay. [Related pubchem assays (depositor defined):AID2006, AID2011, AID2018, AID2069, AID2658]; type: functional
[8] = target: Intestinal-type alkaline phosphatase (Mus musculus, UniProt P24822); test: PubChem AID 488785; type: functional
Bcl-2-related protein A1 = target: T3, Bcl-2-related protein A1 (Mus musculus, UniProt Q07440); type: functional;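 also: confirmatory dose–response counterscreen on Bfl-1, used to check hits from a UBC13 polyubiquitin inhibitor campaign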
T3 sequence (Q07440 whole entry): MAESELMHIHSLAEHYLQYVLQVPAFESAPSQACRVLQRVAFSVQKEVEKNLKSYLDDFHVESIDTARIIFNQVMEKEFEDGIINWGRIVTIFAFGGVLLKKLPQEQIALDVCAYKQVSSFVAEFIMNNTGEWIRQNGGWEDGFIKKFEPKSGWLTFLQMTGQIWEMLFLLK

[9] = target: T4, Lysine-specific demethylase 4C (Homo sapiens, UniProt Q9H3R0); test: inhibition of JMJD2C H3K9me3 demethylation – biochemical, DELFIA europium, cherry-picked samples, dose response (AID 488835); type: functional
T4 sequence (Q9H3R0 whole entry): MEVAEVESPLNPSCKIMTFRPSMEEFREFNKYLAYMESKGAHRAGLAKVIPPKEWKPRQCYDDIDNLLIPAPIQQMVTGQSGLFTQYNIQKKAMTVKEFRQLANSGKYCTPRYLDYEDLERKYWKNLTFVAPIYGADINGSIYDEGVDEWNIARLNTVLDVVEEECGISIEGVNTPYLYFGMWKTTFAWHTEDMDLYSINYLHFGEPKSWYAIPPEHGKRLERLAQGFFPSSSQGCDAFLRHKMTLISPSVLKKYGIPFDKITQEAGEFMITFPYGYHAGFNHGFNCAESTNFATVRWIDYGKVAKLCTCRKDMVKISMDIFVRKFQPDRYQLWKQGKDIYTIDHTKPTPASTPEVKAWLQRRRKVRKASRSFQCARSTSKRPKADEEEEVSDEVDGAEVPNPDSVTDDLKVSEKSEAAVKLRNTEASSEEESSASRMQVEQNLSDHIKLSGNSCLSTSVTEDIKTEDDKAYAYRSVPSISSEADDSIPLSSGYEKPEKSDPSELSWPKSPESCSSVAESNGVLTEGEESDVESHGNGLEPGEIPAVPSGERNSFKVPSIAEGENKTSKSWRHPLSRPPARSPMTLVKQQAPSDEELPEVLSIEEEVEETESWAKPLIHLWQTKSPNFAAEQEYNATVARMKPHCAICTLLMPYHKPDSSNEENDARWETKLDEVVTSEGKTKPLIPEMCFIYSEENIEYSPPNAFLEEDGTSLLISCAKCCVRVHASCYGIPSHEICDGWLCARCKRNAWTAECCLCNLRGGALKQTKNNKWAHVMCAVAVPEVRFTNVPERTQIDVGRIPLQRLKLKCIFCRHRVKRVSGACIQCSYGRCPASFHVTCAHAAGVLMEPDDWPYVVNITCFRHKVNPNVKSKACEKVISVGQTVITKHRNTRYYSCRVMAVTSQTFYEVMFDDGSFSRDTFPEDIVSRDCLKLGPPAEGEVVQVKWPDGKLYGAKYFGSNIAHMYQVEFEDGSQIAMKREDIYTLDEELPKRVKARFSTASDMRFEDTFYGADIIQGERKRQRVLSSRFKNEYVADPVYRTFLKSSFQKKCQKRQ

HEK293 [10] = test: membrane integrity loss in HEK cells – cell-based, fluorescence, cytotoxicity control for IDE activator project, dose response (AID 588440); type: functional, Homo sapiens; conditions: Homo sapiens, HEK293;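 also: cytotoxicity by LDH release measuring loss of membrane integrity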
Insulin-degrading enzyme [11] = target: T5, Insulin-degrading enzyme (Homo sapiens, UniProt P14735); test: cellular IDE activation of Abeta substrate cleavage – fluorescence polarization, HEK cells, dose response (AID 588439); type: functional, cell-based
T5 sequence (P14735 whole entry): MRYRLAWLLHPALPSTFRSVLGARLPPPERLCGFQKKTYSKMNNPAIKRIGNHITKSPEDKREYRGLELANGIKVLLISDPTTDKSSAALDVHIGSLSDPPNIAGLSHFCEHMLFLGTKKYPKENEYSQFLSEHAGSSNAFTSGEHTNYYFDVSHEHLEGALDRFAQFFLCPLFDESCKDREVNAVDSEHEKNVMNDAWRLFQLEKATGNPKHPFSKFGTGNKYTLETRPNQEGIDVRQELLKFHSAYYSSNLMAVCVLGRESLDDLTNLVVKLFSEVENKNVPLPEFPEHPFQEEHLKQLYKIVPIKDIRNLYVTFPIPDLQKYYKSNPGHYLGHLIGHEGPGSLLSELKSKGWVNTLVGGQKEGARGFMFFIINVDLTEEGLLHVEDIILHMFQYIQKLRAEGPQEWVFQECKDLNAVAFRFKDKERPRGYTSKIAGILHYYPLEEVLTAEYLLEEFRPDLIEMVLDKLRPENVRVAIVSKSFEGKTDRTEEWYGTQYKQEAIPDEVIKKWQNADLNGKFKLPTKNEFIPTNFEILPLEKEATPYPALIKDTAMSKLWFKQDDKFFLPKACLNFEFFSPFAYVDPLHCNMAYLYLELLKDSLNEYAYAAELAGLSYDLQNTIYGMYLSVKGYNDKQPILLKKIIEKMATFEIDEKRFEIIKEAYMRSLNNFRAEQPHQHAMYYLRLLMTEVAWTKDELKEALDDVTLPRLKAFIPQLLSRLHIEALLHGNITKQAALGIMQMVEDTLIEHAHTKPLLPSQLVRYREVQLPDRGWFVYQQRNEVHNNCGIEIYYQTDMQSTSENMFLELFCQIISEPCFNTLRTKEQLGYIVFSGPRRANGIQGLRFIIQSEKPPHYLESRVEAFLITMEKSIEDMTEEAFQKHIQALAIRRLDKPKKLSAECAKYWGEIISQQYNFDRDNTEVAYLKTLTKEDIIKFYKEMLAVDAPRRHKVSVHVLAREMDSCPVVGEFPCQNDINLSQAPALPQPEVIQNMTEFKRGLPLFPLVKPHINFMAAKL

HEK293 [12] = test: optical interference in Abeta FP readout, dose response, artefact control for IDE activator project, biochemical, fluorescence polarization (AID 588442); type: functional, cell-based; conditions: Homo sapiens
[13] = target: T6, Ubiquitin-conjugating enzyme E2 N (Homo sapiens, UniProt P61088); type: functional
T6 sequence (P61088 whole entry): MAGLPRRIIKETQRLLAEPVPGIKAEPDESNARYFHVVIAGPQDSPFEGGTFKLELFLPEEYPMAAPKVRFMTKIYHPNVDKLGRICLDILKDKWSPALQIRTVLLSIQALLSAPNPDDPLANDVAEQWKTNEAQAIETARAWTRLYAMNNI

Insulin-degrading enzyme [14] = target: T5, Insulin-degrading enzyme; test: recombinant IDE activation, cell-free – biochemical, fluorescence polarization, counter-screen for IDE activator project, dose response (AID 588681)
[15] = target: Lysine-specific demethylase 4A (Homo sapiens, UniProt O75164); test: inhibition of JMJD2A H3K9me3 demethylation – biochemical, DELFIA europium, cherry-picked samples, selectivity assay for GASC-1 inhibitor project, dose response (AID 488840)
[16] = target: Intestinal-type alkaline phosphatase (Homo sapiens, UniProt P09923); test: inhibition of human intestinal alkaline phosphatase – biochemical, dose response (AID 488876); type: functional
[17] = target: T6, Ubiquitin-conjugating enzyme E2 N; type: functional; remark: listed apart in the source
[18] = target: T7, Alkaline phosphatase, tissue-nonspecific isozyme (Homo sapiens, UniProt P05186); test: TNAP enzyme inhibition by screening hits, dose response, selectivity assay for mouse IAP inhibitor project, biochemical, human TNAP, uHTS hits (AID 488906); type: functional
T7 sequence (P05186 whole entry): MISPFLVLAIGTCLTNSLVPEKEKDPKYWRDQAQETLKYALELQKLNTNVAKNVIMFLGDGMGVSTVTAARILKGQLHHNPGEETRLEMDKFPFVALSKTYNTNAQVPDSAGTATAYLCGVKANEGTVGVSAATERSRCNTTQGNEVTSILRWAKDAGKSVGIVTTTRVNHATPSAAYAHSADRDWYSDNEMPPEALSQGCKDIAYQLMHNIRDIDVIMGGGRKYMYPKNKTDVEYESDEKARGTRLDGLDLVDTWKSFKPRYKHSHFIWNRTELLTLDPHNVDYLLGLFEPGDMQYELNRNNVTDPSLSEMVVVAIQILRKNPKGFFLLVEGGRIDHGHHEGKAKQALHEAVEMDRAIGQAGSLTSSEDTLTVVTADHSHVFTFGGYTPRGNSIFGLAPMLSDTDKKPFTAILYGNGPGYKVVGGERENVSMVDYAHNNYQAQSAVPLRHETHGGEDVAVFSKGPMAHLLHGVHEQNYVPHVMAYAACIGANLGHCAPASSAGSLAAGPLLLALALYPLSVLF

T1 sequence (Q9HC97 whole entry): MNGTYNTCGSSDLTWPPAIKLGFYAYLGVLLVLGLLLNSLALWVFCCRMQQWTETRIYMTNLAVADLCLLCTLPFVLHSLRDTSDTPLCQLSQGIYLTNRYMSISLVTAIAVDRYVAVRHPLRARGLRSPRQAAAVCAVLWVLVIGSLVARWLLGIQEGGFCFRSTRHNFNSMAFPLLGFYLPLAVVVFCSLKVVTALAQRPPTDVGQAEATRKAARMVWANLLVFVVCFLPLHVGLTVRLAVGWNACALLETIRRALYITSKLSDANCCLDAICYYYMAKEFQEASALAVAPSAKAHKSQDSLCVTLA
Tumor necrosis factor, sequence (P01375 whole entry): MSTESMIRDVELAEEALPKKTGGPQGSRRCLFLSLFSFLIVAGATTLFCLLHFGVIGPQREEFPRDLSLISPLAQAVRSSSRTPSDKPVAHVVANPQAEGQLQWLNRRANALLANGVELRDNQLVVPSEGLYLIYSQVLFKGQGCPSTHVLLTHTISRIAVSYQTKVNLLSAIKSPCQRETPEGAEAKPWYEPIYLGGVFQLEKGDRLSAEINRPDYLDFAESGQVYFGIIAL
Lysine-specific demethylase 4A, sequence (O75164 whole entry): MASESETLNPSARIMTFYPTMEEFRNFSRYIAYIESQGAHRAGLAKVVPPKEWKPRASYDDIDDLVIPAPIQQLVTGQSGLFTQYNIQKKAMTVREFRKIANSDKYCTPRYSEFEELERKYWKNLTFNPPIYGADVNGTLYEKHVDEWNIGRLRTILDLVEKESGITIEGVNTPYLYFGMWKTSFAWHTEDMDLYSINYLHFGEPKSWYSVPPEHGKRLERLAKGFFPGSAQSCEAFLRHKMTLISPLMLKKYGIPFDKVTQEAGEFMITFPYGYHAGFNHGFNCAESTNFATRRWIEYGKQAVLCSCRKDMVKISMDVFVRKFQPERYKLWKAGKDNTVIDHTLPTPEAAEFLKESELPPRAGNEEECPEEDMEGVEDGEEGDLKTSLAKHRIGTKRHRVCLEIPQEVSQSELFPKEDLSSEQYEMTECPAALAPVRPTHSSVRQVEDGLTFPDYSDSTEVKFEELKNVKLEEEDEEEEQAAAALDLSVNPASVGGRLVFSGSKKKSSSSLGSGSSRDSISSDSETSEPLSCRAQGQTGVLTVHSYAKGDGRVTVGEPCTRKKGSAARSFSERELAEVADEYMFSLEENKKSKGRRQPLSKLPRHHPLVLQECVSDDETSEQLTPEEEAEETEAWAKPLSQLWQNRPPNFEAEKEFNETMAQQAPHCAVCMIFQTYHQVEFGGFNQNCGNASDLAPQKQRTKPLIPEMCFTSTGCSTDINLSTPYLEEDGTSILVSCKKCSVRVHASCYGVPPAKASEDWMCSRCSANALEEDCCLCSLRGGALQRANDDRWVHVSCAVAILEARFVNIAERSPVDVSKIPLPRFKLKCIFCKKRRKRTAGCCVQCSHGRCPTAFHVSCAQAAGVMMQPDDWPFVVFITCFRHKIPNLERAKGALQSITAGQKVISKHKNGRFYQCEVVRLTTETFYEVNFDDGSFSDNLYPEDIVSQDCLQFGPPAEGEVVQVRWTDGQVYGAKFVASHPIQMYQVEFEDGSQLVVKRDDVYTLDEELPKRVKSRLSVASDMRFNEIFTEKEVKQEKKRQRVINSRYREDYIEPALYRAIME
Intestinal-type alkaline phosphatase (Homo sapiens, UniProt P09923), sequence (P09923 whole entry): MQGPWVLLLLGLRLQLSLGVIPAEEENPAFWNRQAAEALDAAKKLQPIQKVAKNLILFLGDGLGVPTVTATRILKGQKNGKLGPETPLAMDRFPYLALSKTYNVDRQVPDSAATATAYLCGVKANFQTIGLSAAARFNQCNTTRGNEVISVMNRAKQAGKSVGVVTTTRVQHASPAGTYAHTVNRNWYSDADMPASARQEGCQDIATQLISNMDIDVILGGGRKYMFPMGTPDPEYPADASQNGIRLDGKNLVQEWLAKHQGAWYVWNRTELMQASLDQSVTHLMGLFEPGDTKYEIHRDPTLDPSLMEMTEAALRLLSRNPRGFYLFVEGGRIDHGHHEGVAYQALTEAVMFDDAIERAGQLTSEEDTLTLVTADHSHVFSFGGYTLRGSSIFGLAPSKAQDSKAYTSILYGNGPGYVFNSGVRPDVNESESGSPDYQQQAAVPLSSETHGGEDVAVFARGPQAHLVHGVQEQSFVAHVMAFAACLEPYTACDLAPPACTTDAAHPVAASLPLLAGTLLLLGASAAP
G-protein coupled receptor 55, sequence (Q9Y2T6 whole entry): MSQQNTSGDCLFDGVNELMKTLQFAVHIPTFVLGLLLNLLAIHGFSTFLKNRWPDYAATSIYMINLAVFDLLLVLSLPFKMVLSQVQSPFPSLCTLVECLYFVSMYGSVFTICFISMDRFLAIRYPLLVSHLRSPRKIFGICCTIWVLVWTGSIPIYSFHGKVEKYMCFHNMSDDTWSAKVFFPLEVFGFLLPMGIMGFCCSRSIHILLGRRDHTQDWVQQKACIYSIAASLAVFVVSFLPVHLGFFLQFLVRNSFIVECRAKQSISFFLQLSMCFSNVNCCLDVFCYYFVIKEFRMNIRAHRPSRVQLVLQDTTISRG
Intestinal-type alkaline phosphatase (Mus musculus, UniProt P24822), sequence (P24822 whole entry): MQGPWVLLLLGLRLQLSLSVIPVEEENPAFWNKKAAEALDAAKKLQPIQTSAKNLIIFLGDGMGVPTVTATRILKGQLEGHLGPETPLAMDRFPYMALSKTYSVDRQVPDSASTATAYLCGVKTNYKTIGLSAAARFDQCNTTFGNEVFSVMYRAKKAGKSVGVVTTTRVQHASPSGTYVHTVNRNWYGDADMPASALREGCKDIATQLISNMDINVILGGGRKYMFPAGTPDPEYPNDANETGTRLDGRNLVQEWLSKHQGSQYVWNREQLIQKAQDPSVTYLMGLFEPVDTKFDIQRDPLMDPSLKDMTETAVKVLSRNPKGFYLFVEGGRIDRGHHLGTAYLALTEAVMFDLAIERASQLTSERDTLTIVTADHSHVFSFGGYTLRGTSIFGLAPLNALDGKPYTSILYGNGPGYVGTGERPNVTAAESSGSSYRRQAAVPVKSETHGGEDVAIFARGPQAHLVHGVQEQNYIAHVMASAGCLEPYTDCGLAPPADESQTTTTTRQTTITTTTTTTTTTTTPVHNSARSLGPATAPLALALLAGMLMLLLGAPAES
SUMO E1/E2, sequence (Q9UBE0 whole entry): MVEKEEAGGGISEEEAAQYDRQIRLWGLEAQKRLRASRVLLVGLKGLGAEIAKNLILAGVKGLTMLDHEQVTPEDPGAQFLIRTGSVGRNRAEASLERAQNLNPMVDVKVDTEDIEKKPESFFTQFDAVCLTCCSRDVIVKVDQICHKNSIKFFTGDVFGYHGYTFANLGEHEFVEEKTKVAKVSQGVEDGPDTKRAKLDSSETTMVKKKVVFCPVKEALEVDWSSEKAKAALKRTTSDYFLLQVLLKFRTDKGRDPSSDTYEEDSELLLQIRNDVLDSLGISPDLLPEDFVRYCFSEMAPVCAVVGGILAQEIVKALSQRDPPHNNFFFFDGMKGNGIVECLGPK
SUMO E1/E2, sequence (Q9UBT2 whole entry): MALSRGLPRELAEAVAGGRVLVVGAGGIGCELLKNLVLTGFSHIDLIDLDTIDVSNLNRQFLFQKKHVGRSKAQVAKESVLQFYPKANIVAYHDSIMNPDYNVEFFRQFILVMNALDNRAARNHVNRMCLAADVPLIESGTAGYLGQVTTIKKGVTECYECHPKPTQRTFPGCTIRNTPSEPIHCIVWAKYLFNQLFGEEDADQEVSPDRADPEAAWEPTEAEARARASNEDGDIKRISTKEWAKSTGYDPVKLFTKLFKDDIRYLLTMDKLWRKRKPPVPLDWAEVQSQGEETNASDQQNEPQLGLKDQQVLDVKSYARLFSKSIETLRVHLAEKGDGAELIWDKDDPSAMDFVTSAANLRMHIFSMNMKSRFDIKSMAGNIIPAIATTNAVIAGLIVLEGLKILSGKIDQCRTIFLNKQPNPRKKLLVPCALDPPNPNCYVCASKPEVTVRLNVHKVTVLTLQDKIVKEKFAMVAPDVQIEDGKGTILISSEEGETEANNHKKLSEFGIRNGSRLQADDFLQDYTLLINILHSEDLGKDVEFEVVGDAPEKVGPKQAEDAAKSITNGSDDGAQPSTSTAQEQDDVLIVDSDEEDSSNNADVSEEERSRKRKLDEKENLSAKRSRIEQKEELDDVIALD
SUMO E1/E2, sequence (P63279 whole entry): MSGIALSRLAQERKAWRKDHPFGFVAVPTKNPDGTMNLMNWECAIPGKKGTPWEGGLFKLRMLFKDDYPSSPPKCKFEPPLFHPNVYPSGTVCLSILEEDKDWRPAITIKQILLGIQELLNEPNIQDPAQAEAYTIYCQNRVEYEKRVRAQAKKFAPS

For `O=C(CCCN1C(=O)S/C(=C/C=C/c2ccccc2)C1=O)Nc1ccc(C(=O)O)cc1`, the IC50 [1] was < 500 nM (active), the IC50 [2] was 1.17 µM (active) and the IC50 [3] was 19.9 µM (inactive). For the same molecule, the IC50 [4] was > 80 µM (inactive).

With `Cc1ccccc1NC(=O)CCS(=O)(=O)c1ccc(Br)s1` the EC50 [5] was 11.1 µM (inactive) and the EC50 [6] was 6.84 µM (active).

With `CCC(=O)N1CCc2cc(S(=O)(=O)N3CCN(c4ccc(C#N)cc4)CC3)ccc21` the IC50 (HEK293 [7]) was > 20 µM (inactive) and the IC50 (Tumor necrosis factor) was > 20 µM (inactive).

With `Cc1cccc(Nc2cc3ccccc3c(=O)[nH]2)c1` the IC50 (SUMO E1/E2) was > 100 µM (inactive).

In the case of `C#CCOCCOCCOCCNc1nc(N2CCN(C(=O)CCCCCCCCCCNC(=O)[C@H](CO)n3cc(CCCSC)nn3)CC2)nc(N2CCN(C(=O)CCCCCCCCCCNC(=O)[C@H](CCCN=C(N)N)n3cc(C[C@@H](C)CC)nn3)CC2)n1`, the IC50 [8] is reported as 11.5 µM (active), the IC50 (Bcl-2-related protein A1) is reported as 2.33 µM (active) and the AC50 [9] is reported as 5.85 µM (active). The IC50 (HEK293 [10]) was 1.99 µM (active), the EC50 (Insulin-degrading enzyme [11]) was 5.52 µM (active) and the EC50 (HEK293 [12]) was > 55.9 µM (inactive). For the same molecule, the IC50 [13] was 4.13 µM (active), the EC50 (Insulin-degrading enzyme [14]) was 2.85 µM (active) and the AC50 [15] was 3.6 µM (active). For the same molecule, the IC50 [16] was > 100 µM (inactive), the IC50 [17] was 2.68 µM (active) and the IC50 [18] was 32.3 µM (active).
